# Results reported in US9174996B2, “Protein kinase inhibitors” (Astar Biotech LLC, priority 2012, dated 2015).
# Where two headings read alike, the source gives them in different places.
# How the values were obtained:
# [1] = system: K562 cells; assay: Cell death assay, Experiment 1 (live cells counted by trypan blue); format: cell-based; conditions: Homo sapiens, 100 nM, 48 hours, read-out: % live cells (vs control)
# [2] = system: K562 cells; assay: Cell death assay, Experiment 2 (IC50, live cells counted by trypan blue); format: cell-based; conditions: Homo sapiens, 48 h
# Experimental: K562 cells (2×10^5 cells/ml) were seeded in 24-well cell culture plate and treated with DMSO or agents. After treatment in the presence of DMSO or agents for 48 h, cells were collected by centrifuging at 500 g for 5 minutes, and then cells were resuspended in appropriate volume of PBS. 10 uL of cell suspension was mixed with 10 uL of trypan blue solution and live cells were counted by TC10 (Bio-Rad, Richmond, Calif.).
# [3] = biological target: Ba/F3 cells expressing BCR-ABL T315I (Homo sapiens, UniProt P00519, T315I, cells depend on it); assay: MTT cell viability assay, Experiment 3; format: cell-based, murine; conditions: Mean ± S.E.M, two independent experiments, read-out: IC50 cell viability, Ba/F3 cells T315I BCR-ABL
# Text: (§1) This study evaluated the effect of the pure optical isomers on human leukemia cell viability in vitro. […] Two BCR-ABL-positive human leukemia cell lines, K562 and KU812, were used in this study. Besides, Ba/F3 cell transfectants expressing native or T315I BCR-ABL, whose viability is dependent on ectopically expressed BCR-ABL, were also used in this work. Ba/F3 cells expressing BCR-ABL^T315I were used for testing the efficiency of tested compounds on point mutation BCR-ABL^T315I, which cause drug resistance to Imatinib (Gleevec). U937 and JURKAT, two BCR-ABL-negative human leukemia cell lines, were employed to test the selectivity of tested compounds.
# (§2) Cells were seeded in 24-well plates, and treated with drugs at corresponding concentrations. Cell viability was measured using a MTT (3-(4,5-dimethylthiazol-2-yl)-2,5-diphenyltetrazolium bromide)-based colorimetric assay with a 96-well plate reader. IC50 values were calculated using the mean of two independent experiments.
# [4] = biological target: Ba/F3 cells expressing native BCR-ABL (Homo sapiens, UniProt P00519); assay: MTT cell viability assay, Experiment 3; format: cell-based, murine; conditions: Mean ± S.E.M, two independent experiments, read-out: IC50 cell viability, Ba/F3 cells Native BCR-ABL
# Text: as §1, §2
# [5] = system: JURKAT; assay: MTT cell viability assay, Experiment 3; format: cell-based; conditions: Homo sapiens, read-out: IC50 cell viability, Non-CML leukemia cells JURKAT
# Text: (§3) This study evaluated the effect of the pure optical isomers on human leukemia cell viability in vitro. Ponatinib was used as the positive control. Two BCR-ABL-positive human leukemia cell lines, K562 and KU812, were used in this study. Besides, Ba/F3 cell transfectants expressing native or T315I BCR-ABL, whose viability is dependent on ectopically expressed BCR-ABL, were also used in this work. Ba/F3 cells expressing BCR-ABL^T315I were used for testing the efficiency of tested compounds on point mutation BCR-ABL^T315I, which cause drug resistance to Imatinib (Gleevec). U937 and JURKAT, two BCR-ABL-negative human leukemia cell lines, were employed to test the selectivity of tested compounds.
# as §2
# [6] = system: K562; assay: MTT cell viability assay, Experiment 3; format: cell-based; conditions: Homo sapiens
# Text: as §3, §2
# [7] = system: KU812; assay: MTT cell viability assay, Experiment 3; format: cell-based; conditions: Homo sapiens
# Text: as §3, §2
# [8] = system: U937; assay: MTT cell viability assay, Experiment 3; format: cell-based; conditions: Homo sapiens
# Text: as §3, §2
# [9] = system: Ba/F3 harboring the T315I mutant isoform of BCR-ABL; assay: BaF3/BCR-ABL T315I mouse xenograft model, Experiment 4; format: in vivo; conditions: oral, 14 days, NOD SCID mice
# Experimental: The murine pro-B cell line Ba/F3 harboring the T315I mutant isoform of BCR-ABL was subcutaneously injected into NOD SCID mice (NOD.CB17-Prkdc^scid/J). […] The tumor volumes in two dimensions and the body weights of the mice were measured three times a week (volume=L×W^2×0.5).
# [10] = MTT, Mean ± S.E.M, two independent experiments
# [11] = K562, MTT, Mean ± S.E.M, two independent experiments, read-out: IC50 cell viability, CML leukemia cells K562
# [12] = KU812, MTT, Mean ± S.E.M, two independent experiments, read-out: IC50 cell viability, CML leukemia cells KU812
# [13] = U-937, MTT, Mean ± S.E.M, two independent experiments, read-out: IC50 cell viability, Non-CML leukemia cells U937
Compound,"IC50 [5, 10]","IC50 [6, 11]","IC50 [8, 13]",melting point,viability at 0.1 µM [1],IC50 [2],GI50 [3],GI50 [4],"IC50 [7, 12]",TGI (Tumor growth inhibition) ([9]; 5 mg/kg/day),TGI (Tumor growth inhibition) ([9]; 10 mg/kg/day),TGI (Tumor growth inhibition) ([9]; 20 mg/kg/day),IC50 [5],"IC50 ([6]; K562, read-out: IC50 cell viability, CML leukemia cells K562)","IC50 ([7]; KU812, read-out: IC50 cell viability, CML leukemia cells KU812)","IC50 ([8]; U-937, read-out: IC50 cell viability, Non-CML leukemia cells U937)"
"Cc1ccc(C(=O)Nc2ccc3c(c2)C(F)(F)CC3N2CCN(C)CC2)cc1C#Cc1cnc(NC2CC2)nc1 (racemic) [Compound 37, 3-(2-(2-(Cyclopropylamino)pyrimidin-5-yl)ethynyl)-N-(1,1-difluoro-2,3-dihydro-3-(4-methylpiperazin-1-yl)-1H-indan-6-yl)-4-methylbenzamide]",292 ± 8 nM,1 ± 0.2 nM,191 ± 3.3 nM,95 to 97 °C,4.32%,3.4 nM,40 ± 9.6 nM,9.3 ± 2.5 nM,0.4 ± 0.1 nM,,,,,,,
"CN1CCN(C2CC(F)(F)c3cc(NC(=O)c4ccc(Cl)c(C#Cc5cnc6cccnn56)c4)ccc32)CC1 (racemic) [Compound 38, N-(1,1-difluoro-2,3-dihydro-3-(4-methylpiperazin-1-yl)-1H-indan-6-yl)-3-(2-(imidazo[1,2-b]pyridazin-3-yl)ethynyl)-4-chlorobenzamide]",> 1000 nM,0.8 ± 0.1 nM,> 1000 nM,140 to 142 °C,,,10.1 ± 0.7 nM,4.9 ± 2.1 nM,0.4 ± 0.1 nM,,,,,,,
"Cc1ccc(C(=O)Nc2ccc3c(c2)C(F)(F)C[C@H]3N2CCN(C)CC2)cc1C#Cc1cnc(NC2CC2)nc1 [37-(R), (R)-3-(2-(2-(Cyclopropylamino)pyrimidin-5-yl)ethynyl)-N-(1,1-difluoro-2,3-dihydro-3-(4-methylpiperazin-1-yl)-1H-indan-6-yl)-4-methylbenzamide]",400 ± 64.9 nM,10.4 ± 1.5 nM,465 ± 9.7 nM,,,,> 100 nM,62.5 ± 6.9 nM,5.2 ± 0.2 nM,,,,,,,
"Cc1ccc(C(=O)Nc2ccc3c(c2)C(F)(F)C[C@@H]3N2CCN(C)CC2)cc1C#Cc1cnc(NC2CC2)nc1 [37-(S), (S)-3-(2-(2-(Cyclopropylamino)pyrimidin-5-yl)ethynyl)-N-(1,1-difluoro-2,3-dihydro-3-(4-methylpiperazin-1-yl)-1H-indan-6-yl)-4-methylbenzamide]",280 ± 20 nM,0.6 ± 0.1 nM,165 ± 15 nM,,,,12.4 ± 0.4 nM,3.5 ± 0.9 nM,0.2 ± 0.1 nM,,,,,,,
"Cc1ccc(-c2nc3ccc(CN4CCN(C)CC4)cc3[nH]2)cc1C#Cc1cnc2cccnn12 [Compound 3, 3-(2-(2-Methyl-5-(6-((4-methylpiperazin-1-yl)methyl)-1H-benzo[d]imidazol-2-yl)phenyl)ethynyl)imidazo[1,2-b]pyridazine]",,,,114 to 115 °C,11.3%,3 nM,,,,,,,,,,
"Cc1ccc(C(=O)Nc2ccc(CN3CCN(C)CC3)c(C(F)(F)F)c2)cc1C#Cc1ccc(NC2CC2)nn1 [Compound 12, 3-(2-(6-(Cyclopropylamino)pyridazin-3-yl)ethynyl)-4-methyl-N-(4-((4-methylpiperazin-1-yl)methyl)-3-(trifluoromethyl)phenyl)benzamide]",,,,68 to 69 °C,10.1%,4 nM,,,,,,,,,,
"Cc1ccc(C(=O)Nc2ccc(CN3CCN(C)CC3)c(C(F)(F)F)c2)cc1C#Cc1ccc(NC2CCC2)nn1 [Compound 13, 3-(2-(6-(Cyclobutylamino)pyridazin-3-yl)ethynyl)-4-methyl-N-(4-((4-methylpiperazin-1-yl)methyl)-3-(trifluoromethyl)phenyl)benzamide]",,,,120 to 121 °C,8.9%,11 nM,,,,,,,,,,
"Cc1cn(-c2cc(NC(=O)c3ccc(C)c(C#Cc4ccc(NC5CC5)nn4)c3)cc(C(F)(F)F)c2)cn1 [Compound 23, 3-(2-(6-(Cyclopropylamino)pyridazin-3-yl)ethynyl)-4-methyl-N-(3-(4-methyl-1H-imidazol-1-yl)-5-(trifluoromethyl)phenyl)benzamide]",,,,226 to 228 °C,8.6%,16 nM,,,,,,,,,,
"Cc1cn(-c2ccc(NC(=O)c3ccc(C)c(C#Cc4cnc5cccnn45)c3)cc2C(F)(F)F)cn1 [Compound 30, 3-(2-(Imidazo[1,2-b]pyridazin-3-yl)ethynyl)-4-methyl-N-(4-(4-methyl-1H-imidazol-1-yl)-3-(trifluoromethyl)-phenyl)benzamide]",,,,124 to 126 °C,12.6%,3.6 nM,,,,,,,,,,
"Cc1ccc(C(=O)Nc2ccc(CN3CCN(C)CC3)c(C(F)(F)F)c2)cc1C#Cc1cnc2cccnn12 [Ponatinib, reference compound]",,,,,,,,,,,75%,94%,295 ± 5 nM,0.3 ± 0.1 nM,0.1 ± 0.1 nM,246 ± 12.5 nM

# Now from value to compound, other results behind:
"IC50 [5, 10]","IC50 [6, 11]","IC50 [8, 13]",melting point,Compound,viability at 0.1 µM [1],IC50 [2],GI50 [3],GI50 [4],"IC50 [7, 12]",TGI (Tumor growth inhibition) ([9]; 5 mg/kg/day),TGI (Tumor growth inhibition) ([9]; 10 mg/kg/day),TGI (Tumor growth inhibition) ([9]; 20 mg/kg/day),IC50 [5],"IC50 ([6]; K562, read-out: IC50 cell viability, CML leukemia cells K562)","IC50 ([7]; KU812, read-out: IC50 cell viability, CML leukemia cells KU812)","IC50 ([8]; U-937, read-out: IC50 cell viability, Non-CML leukemia cells U937)"
672 ± 77.6 nM,0.5 ± 0.1 nM,608 ± 42.2 nM,,"Cc1ccc(C(=O)Nc2ccc3c(c2)C(F)(F)CC3N2CCN(C)CC2)cc1C#Cc1cnc2cccnn12 (racemic) [Compound 36, N-(1,1-difluoro-2,3-dihydro-3-(4-methylpiperazin-1-yl)-1H-indan-6-yl)-3-(2-(imidazo[1,2-b]pyridazin-3-yl)ethynyl)-4-methylbenzamide]",9.48%,0.87 nM,11 ± 0.2 nM,2.7 ± 0.2 nM,0.2 ± 0.1 nM,,,,,,,
> 1000 nM,0.8 ± 0.2 nM,810 ± 39.2 nM,118 to 121 °C,"CN1CCN(C2CC(F)(F)c3cc(NC(=O)c4ccc(F)c(C#Cc5cnc6cccnn56)c4)ccc32)CC1 (racemic) [Compound 39, N-(1,1-difluoro-2,3-dihydro-3-(4-methylpiperazin-1-yl)-1H-indan-6-yl)-3-(2-(imidazo[1,2-b]pyridazin-3-yl)ethynyl)-4-fluorobenzamide]",,,13 ± 0.9 nM,3.6 ± 0.7 nM,0.5 ± 0.3 nM,,,,,,,
> 1000 nM,0.6 ± 0.1 nM,> 1000 nM,,"CN1CCN([C@H]2CC(F)(F)c3cc(NC(=O)c4ccc(Cl)c(C#Cc5cnc6cccnn56)c4)ccc32)CC1 (single isomer, unassigned) [Compound 38-(S)]",,,3.8 ± 0.2 nM,2.2 ± 0.3 nM,0.2 ± 0.1 nM,81%,,,,,,
> 1000 nM,3.6 ± 0.1 nM,> 1000 nM,,"Cc1ccc(C(=O)Nc2ccc3c(c2)C(F)(F)C[C@H]3N2CCN(C)CC2)cc1C#Cc1cnc2cccnn12 [36-(R), (R)—N-(1,1-difluoro-2,3-dihydro-3-(4-methylpiperazin-1-yl)-1H-indan-6-yl)-3-(2-(imidazo[1,2-b]pyridazin-3-yl)ethynyl)-4-methylbenzamide]",,,> 100 nM,31.2 ± 3.8 nM,2.7 ± 0.1 nM,,,,,,,
851 ± 25.7 nM,0.4 ± 0.1 nM,868 ± 88.7 nM,,"Cc1ccc(C(=O)Nc2ccc3c(c2)C(F)(F)C[C@@H]3N2CCN(C)CC2)cc1C#Cc1cnc2cccnn12 [Compound 36-(S), (S)-N-(1,1-difluoro-2,3-dihydro-3-(4-methylpiperazin-1-yl)-1H-indan-6-yl)-3-(2-(imidazo[1,2-b]pyridazin-3-yl)ethynyl)-4-methylbenzamide]",,,4.7 ± 1.3 nM,2.1 ± 0.2 nM,0.1 ± 0.1 nM,,105%,108%,,,,
